# Test results taken from patent publication US8334316B2, “Substituted organosulfur compounds and methods of using thereof” (ACEA Biosciences, Inc., priority 2004, dated 2012).
# “And” between values parts separate entries of the source, which are not always exact repeats. Equal values may be shown once. Marks after values point to notes of the source that are not given here.
# What was measured:
# [1] = system: Bcap-37 human breast cancer; assay: Bcap-37 human breast cancer xenograft in nude mice, dosing from day 7 when tumors palpable (Example 5); format: in vivo; conditions: for Tumor Inhibition Rate C − T/C %: based on tumor weight; for Tumor Volume (g) X ± SD: end of study
# Method: Only female mice were used in this study. […] The high, middle and low doses of ACEA100108 were 50, […] and 8 mg/kg/d, respectively.
# Preparation and Administration of Test Compounds. […] Seven days after the tumor transplantation, the transplanted tumors grew to size sufficiently large that could be felt by hands when one touched the animal. […] The high, middle and low dose of ACEA100108 was 50, 20 and 8 mg/kg, respectively.
# About seven days after the transplantation, tumors in the mice grew sufficiently large so that tumor could be felt by hands when one touched the animals.
# For the human breast cancer xenograft model, all used materials, including animal food, animal cage, supporting materials and apparatus contacted by animals, were high-pressure sterilized. Nude mice were maintained in laminar flow shelves under SPF condition. After tumor transplantation, mouse weight and tumor size in each compound dosage group were dynamically monitored and recorded. The tumors size was determined by measuring the major axis (a) and minor axis (b) of the tumor, and tumor volume was calculated according to the equation (3) in Example 3.
# [2] = system: A549 human lung cancer cells; assay: Apoptosis: Annexin V-Cy3 / 6-CFDA staining of A549 cells; format: cell-based; conditions: 24 hrs
# Method: The cells were incubated with the drugs for 24 hours and then washed 2× with PBS and 3× with binding buffer (10 mM HEPES, pH 7.5, 140 mM NaCl, 2.5 mM CaCl2). […] The cells were gently washed 3× in 1× binding buffer, mounted, viewed under immunofluorescent microscope and imaged using an attached CCD camera. Note that live cells show staining only with 6-CFDA (green), while necrotic cells will stain only with Annexin V-Cy3 (red). Cells starting the apoptotic process will stain both with AnnexinV-Cy3 and 6-CFDA.
# [3] = system: A549 human lung cancer cells; assay: Cell-cycle distribution by propidium iodide flow cytometry in A549 cells; format: cell-based; conditions: 24 hrs, vs DMSO
# Method: Another in vitro assay may be used to evaluate the effect of compounds in arresting the cell cycle progression. More specifically, a test compound is added to cells of certain cell lines in a concentration-dependent manner. After cells are incubated for certain specific length of time, cells are stained using propidium iodide and are used for flow cytometric assessment. The cell populations of sub-G0/G1, G0/G1, S and G2/M phases are determined. All above in vitro assays are cell-based, single-time point (or multiple-time points using multiple plates) end-point assays.
# Microtubules are extremely important in the process of mitosis, during which the duplicated chromosomes of a cell are separated into two identical sets before cleavage of the cell into two daughter cells. […] As consequence, cells will be arrested at G2/M phase.
# In briefly, A549 cells were seeded at a density of 500,000 cells in 60 mm tissue culture dishes. Approximately 18 hours later the cells were treated with the indicated concentrations of anti-mitotic compounds and allowed to further incubate for 24 hours. The cells were washed in PBS, trypsinized, counted and fixed in ice-cold 70% methanol and stored at 4° C. The cells were washed with PBS, stained with propidium iodide and kept on ice until flow cytometry analysis.
# [4] = system: ao10/17 human ovarian cancer; assay: ao10/17 human ovarian cancer xenograft in nude mice (Example 4); format: in vivo
# mouse Lewis lung cancer = assay: In vivo antitumor efficacy, mouse Lewis lung cancer model, Example 2 (DBTS, CTX, Taxol reference)
# [5] = 20 mg/kg iv x7 qd, 0 d (beginning)
smiles,measurement,setting,value
"Fc1ccc(CSSSCc2ccc(F)cc2)cc1 [ACEA100108, Di(p-fluorobenzyl)trisulfide]",Body weight of mice,"[1]; 8 mg/kg iv x7 qd, 0 d (beginning)",18.5 g and 18.5 ± 1 g
same,Body weight of mice,"[1]; 8 mg/kg iv x7 qd, 7 d",19.8 ± 1.5 g
same,Mice with palpable tumor / total mice,"[1]; 8 mg/kg iv x7 qd, 7 d",6/6††
same,Tumor volume (cm^3),"[1]; 8 mg/kg iv x7 qd, 7 d after transplantation (start of dosing)",0.01 cm^3
same,Body weight of mice,"[1]; 8 mg/kg iv x7 qd, 14 d",21.7 ± 1.4 g
same,Tumor volume (cm^3),"[1]; 8 mg/kg iv x7 qd, 14 d",0.107 ± 0.02 cm^3
same,Body weight of mice,"[1]; 8 mg/kg iv x7 qd, 21 d",23.2 ± 1.5 g
same,Tumor volume (cm^3),"[1]; 8 mg/kg iv x7 qd, 21 d",0.27 ± 0.03 cm^3
same,Tumor volume (cm^3),"[1]; 8 mg/kg iv x7 qd, 24 d",0.962 ± 0.23 cm^3
same,Body weight of mice,"[1]; 8 mg/kg iv x7 qd, 24 d (end)",24.0 g and 24 ± 1.4 g
same,Tumor Volume Inhibition T/C %,[1]; 8 mg/kg/d iv x7 qd,53.38%
same,Tumor weight,[1]; 8 mg/kg/d iv x7 qd,1.12 ± 0.18 g
same,Tumor Inhibition Rate C − T/C %,[1]; 8 mg/kg/d iv x7 qd,28.21%
same,Tumor Volume (g) X ± SD,[1]; 8 mg/kg/d iv x7 qd,0.962 ± 0.23*** cm^3
same,Body weight of mice,[1]; [5],18.8 ± 1.2 g
same,Body weight of mice,"[1]; 20 mg/kg iv x7 qd, 7 d",19.5 ± 1 g
same,Mice with palpable tumor / total mice,"[1]; 20 mg/kg iv x7 qd, 7 d",6/6††
same,Tumor volume (cm^3),"[1]; 20 mg/kg iv x7 qd, 7 d after transplantation (start of dosing)",0.01 cm^3
same,Body weight of mice,"[1]; 20 mg/kg iv x7 qd, 14 d",21.2 ± 1.5 g
same,Tumor volume (cm^3),"[1]; 20 mg/kg iv x7 qd, 14 d",0.087 ± 0.01 cm^3
same,Body weight of mice,"[1]; 20 mg/kg iv x7 qd, 21 d",22.3 ± 1.6 g
same,Tumor volume (cm^3),"[1]; 20 mg/kg iv x7 qd, 21 d",0.23 ± 0.04 cm^3
same,Tumor volume (cm^3),"[1]; 20 mg/kg iv x7 qd, 24 d",0.74 ± 0.18 cm^3
same,Body weight of mice,"[1]; 20 mg/kg iv x7 qd, 24 d (end)",24.3 g and 24.3 ± 0.8 g
same,Tumor Volume Inhibition T/C %,[1]; 20 mg/kg/d iv x7 qd,41.06%
same,Tumor weight,[1]; 20 mg/kg/d iv x7 qd,0.822 ± 0.12 g
same,Tumor Inhibition Rate C − T/C %,[1]; 20 mg/kg/d iv x7 qd,47.31%
same,Tumor Volume (g) X ± SD,[1]; 20 mg/kg/d iv x7 qd,0.740 ± 0.18*** cm^3
same,Body weight of mice,"[1]; 50 mg/kg iv x7 qd, 0 d (beginning)",18.2 g and 18.2 ± 1.2 g
same,Body weight of mice,"[1]; 50 mg/kg iv x7 qd, 7 d",19.3 ± 1 g
same,Mice with palpable tumor / total mice,"[1]; 50 mg/kg iv x7 qd, 7 d",6/6††
same,Tumor volume (cm^3),"[1]; 50 mg/kg iv x7 qd, 7 d after transplantation (start of dosing)",0.01 cm^3
same,Body weight of mice,"[1]; 50 mg/kg iv x7 qd, 14 d",20.7 ± 1.2 g
same,Tumor volume (cm^3),"[1]; 50 mg/kg iv x7 qd, 14 d",0.049 ± 0.02 cm^3
same,Body weight of mice,"[1]; 50 mg/kg iv x7 qd, 21 d",21.8 ± 1.5 g
same,Tumor volume (cm^3),"[1]; 50 mg/kg iv x7 qd, 21 d",0.169 ± 0.03 cm^3
same,Tumor volume (cm^3),"[1]; 50 mg/kg iv x7 qd, 24 d",0.485 ± 0.06 cm^3
same,Body weight of mice,"[1]; 50 mg/kg iv x7 qd, 24 d (end)",22.8 g and 22.8 ± 1.5 g
same,Body weight of mice,"[1]; 50 mg/kg iv x10 qd, 0 d (beginning)",18.8 g and 18.8 ± 1 g
same,Body weight of mice,"[1]; 50 mg/kg iv x10 qd, 7 d",19.7 ± 1 g
same,Mice with palpable tumor / total mice,"[1]; 50 mg/kg iv x10 qd, 7 d",6/6††
same,Tumor volume (cm^3),"[1]; 50 mg/kg iv x10 qd, 7 d after transplantation (start of dosing)",0.01 cm^3
same,Body weight of mice,"[1]; 50 mg/kg iv x10 qd, 14 d",20.3 ± 1.4 g
same,Tumor volume (cm^3),"[1]; 50 mg/kg iv x10 qd, 14 d",0.048 ± 0.03 cm^3
same,Body weight of mice,"[1]; 50 mg/kg iv x10 qd, 21 d",21.5 ± 1.8 g
same,Tumor volume (cm^3),"[1]; 50 mg/kg iv x10 qd, 21 d",0.114 ± 0.02 cm^3
same,Tumor volume (cm^3),"[1]; 50 mg/kg iv x10 qd, 24 d",0.28 ± 0.04 cm^3
same,Body weight of mice,"[1]; 50 mg/kg iv x10 qd, 24 d (end)",21.2 g and 21.2 ± 1.2 g
same,Tumor Volume Inhibition T/C %,[1]; 50 mg/kg/d iv x7 qd,26.91%
same,Tumor weight,[1]; 50 mg/kg/d iv x7 qd,0.745 ± 0.10 g
same,Tumor Volume (g) X ± SD,[1]; 50 mg/kg/d iv x7 qd,0.485 ± 0.06*** cm^3
same,Tumor Volume Inhibition T/C %,[1]; 50 mg/kg/d iv x10 qd,15.53%
same,Tumor weight,[1]; 50 mg/kg/d iv x10 qd,0.672 ± 0.10 g
same,Tumor Inhibition Rate C − T/C %,[1]; 50 mg/kg/d iv x10 qd,56.92%
same,Tumor Volume (g) X ± SD,[1]; 50 mg/kg/d iv x10 qd,0.280 ± 0.04*** cm^3
same,Annexin V staining (apoptosis),[2]; 1 uM,strong staining of Annexin V
same,Cell population at G2/M phase,[3]; 25 uM,increased significantly
same,Body weight of mice,[4]; [5],17.2 g and 17.2 ± 1.2 g
"c1ccc(CSSSCc2ccccc2)cc1 [DBTS, Dibenzyl trisulfide]",Tumor weight,mouse Lewis lung cancer; 12.5 mg/kg/d iv x10 qd,1.59 ± 0.16 g
same,tumor inhibition rate %,"mouse Lewis lung cancer; 12.5 mg/kg/d iv x10 qd, vs 5% solvent control",35.10%
same,tumor inhibition rate %,"mouse Lewis lung cancer; 12.5 mg/kg/d iv x10 qd, vs normal saline control",43.10% and 43.01%
same,Tumor weight,mouse Lewis lung cancer; 25 mg/kg/d iv x10 qd,1.35 ± 0.10 g
same,tumor inhibition rate %,"mouse Lewis lung cancer; 25 mg/kg/d iv x10 qd, vs 5% solvent control",46.94%
same,tumor inhibition rate %,"mouse Lewis lung cancer; 25 mg/kg/d iv x10 qd, vs normal saline control",51.61%
same,Tumor weight,mouse Lewis lung cancer; 50 mg/kg/d iv x10 qd,0.955 ± 0.20 g
same,tumor inhibition rate %,"mouse Lewis lung cancer; 50 mg/kg/d iv x10 qd, vs 5% solvent control",61.02%
same,tumor inhibition rate %,"mouse Lewis lung cancer; 50 mg/kg/d iv x10 qd, vs normal saline control",65.77% and 65%
"CC(=O)O[C@H]1C(=O)[C@@]2(C)[C@H]([C@H](OC(=O)c3ccccc3)[C@]3(O)C[C@H](OC(=O)[C@H](O)[C@@H](NC(=O)c4ccccc4)c4ccccc4)C(C)=C1C3(C)C)[C@]1(OC(C)=O)CO[C@@H]1C[C@@H]2O [Taxol, paclitaxel, reference compound]",Tumor weight,mouse Lewis lung cancer; 7.5 mg/kg/d iv x5 qd,1.98 ± 0.14 g
same,tumor inhibition rate %,"mouse Lewis lung cancer; 7.5 mg/kg/d iv x5 qd, vs normal saline control",30.28%
same,Tumor weight,mouse Lewis lung cancer; 10 mg/kg/d iv x5 qd,1.79 ± 0.09 g
same,tumor inhibition rate %,"mouse Lewis lung cancer; 10 mg/kg/d iv x5 qd, vs normal saline control",36.97%
same,Tumor weight,mouse Lewis lung cancer; 15 mg/kg/d iv x5 qd,1.45 ± 0.14 g
same,tumor inhibition rate %,"mouse Lewis lung cancer; 15 mg/kg/d iv x5 qd, vs normal saline control",48.94%
same,Body weight of mice,"[1]; 10 mg/kg iv x7 qd, 0 d (beginning)",18.8 g and 18.8 ± 1 g
same,Body weight of mice,"[1]; 10 mg/kg iv x7 qd, 7 d",20.5 ± 1 g
same,Mice with palpable tumor / total mice,"[1]; 10 mg/kg iv x7 qd, 7 d",6/6††
same,Tumor volume (cm^3),"[1]; 10 mg/kg iv x7 qd, 7 d after transplantation (start of dosing)",0.01 cm^3
same,Tumor volume (cm^3),"[1]; 10 mg/kg iv x7 qd, 14 d",0.103 ± 0.02 cm^3
same,Tumor volume (cm^3),"[1]; 10 mg/kg iv x7 qd, 21 d",0.283 ± 0.05 cm^3
same,Tumor volume (cm^3),"[1]; 10 mg/kg iv x7 qd, 24 d",0.799 ± 0.23 cm^3
same,Tumor Volume Inhibition T/C %,[1]; 10 mg/kg/d iv x7 qd,44.33%
same,Tumor weight,[1]; 10 mg/kg/d iv x7 qd,0.92 ± 0.07 g
same,Tumor Inhibition Rate C − T/C %,[1]; 10 mg/kg/d iv x7 qd,41.03%
same,Annexin V staining (apoptosis),[2]; 50 nM,strong staining of Annexin V
same,Cell population at G2/M phase,[3]; 7.8 nM,increased significantly
same,Mice with palpable tumor / total mice,"[4]; 10 mg/kg iv x7 qd, 7 D after transplantation",2/6
